In ChEMBL document CHEMBL1201862, “PubChem BioAssay data set” (2004):
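The compound was tested at five concentrations on cells cultured in 96-well plates, with a 48-hour exposure period. GI50 marks 50% less growth.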 Active and inactive are the calls of the source. Cut-off read from the data, not from the text of the source: active = GI50 up to about 1.1 µM and inactive = higher.

Columns and labels:
Experiment in all cases: NCI tumour cell line growth inhibition, 48 h
HL-60 = test system: HL-60
OVCAR-8 = test system: OVCAR-8
NCI-H460 = test system: NCI-H460
HOP-62 = test system: HOP-62
K562 = test system: K562
SR = test system: SR
HCT-15 = test system: HCT-15
RXF 393 = test system: RXF 393
CAKI-1 = test system: CAKI-1
HCC 2998 = test system: HCC 2998
A498 = test system: A498
MDA-MB-435 = test system: MDA-MB-435
SN12C = test system: SN12C
UO-31 = test system: UO-31
IGROV-1 = test system: IGROV-1
SK-MEL-2 = test system: SK-MEL-2
OVCAR-3 = test system: OVCAR-3
OVCAR-5 = test system: OVCAR-5
HOP-92 = test system: HOP-92
SF-268 = test system: SF-268

| SMILES | GI50 (HL-60) | GI50 (OVCAR-8) | GI50 (NCI-H460) | GI50 (HOP-62) | GI50 (K562) | GI50 (SR) | GI50 (HCT-15) [µM] | GI50 (RXF 393) | GI50 (CAKI-1) | GI50 (HCC 2998) | GI50 (A498) | GI50 (MDA-MB-435) | GI50 (SN12C) | GI50 (UO-31) | GI50 (IGROV-1) | GI50 (SK-MEL-2) | GI50 (OVCAR-3) | GI50 (OVCAR-5) | GI50 (HOP-92) | GI50 (SF-268) |
| --- | --- | --- | --- | --- | --- | --- | --- | --- | --- | --- | --- | --- | --- | --- | --- | --- | --- | --- | --- | --- |
| CC1=NN(C(=O)CC(=O)Nc2cccc(C)c2)C(=O)C1/N=N\c1ccc(S(=O)(=O)c2ccc(/N=N/C3C(=O)N(C(=O)CC(=O)Nc4cccc(C)c4)N=C3C)cc2)cc1 (stereo unspecified) | > 100 µM (inactive) | > 100 µM (inactive) | > 100 µM (inactive) | > 100 µM (inactive) | > 100 µM (inactive) | > 100 µM (inactive) | > 100 | > 100 µM (inactive) | > 100 µM (inactive) | > 100 µM (inactive) | > 100 µM (inactive) | > 100 µM (inactive) | > 100 µM (inactive) | > 100 µM (inactive) | > 100 µM (inactive) | > 100 µM (inactive) | > 100 µM (inactive) | > 100 µM (inactive) | > 100 µM (inactive) | > 100 µM (inactive) |
| CC1(C)O[C@@H](CBr)C[C@H](C[C@H]2C[C@@H](O)C[C@@H](CCOCc3ccccc3)O2)O1 |  | 21.5 µM (inactive) | 29.9 µM (inactive) | 20.1 µM (inactive) | 40.2 µM (inactive) | 27.7 µM (inactive) | 24.2 |  | 27.8 µM (inactive) | 24.6 µM (inactive) | 23 µM (inactive) | 23.5 µM (inactive) | 30.4 µM (inactive) | 20.7 µM (inactive) | 19.8 µM (inactive) | 16.4 µM (inactive) | 19.4 µM (inactive) | 18.7 µM (inactive) | 25.5 µM (inactive) | 22 µM (inactive) |
| O=C1NC(=S)N/C1=C/c1c(-c2ccccc2)[nH]c2ccccc12 | 7.31 µM (inactive) | 14.4 µM (inactive) | 12.9 µM (inactive) | 15.5 µM (inactive) | 10.1 µM (inactive) | 6.32 µM (inactive) | 14.7 | 15.3 µM (inactive) | 18.2 µM (inactive) | 21.1 µM (inactive) | 11.4 µM (inactive) | 13.7 µM (inactive) | 18.5 µM (inactive) | 9.23 µM (inactive) | 13.8 µM (inactive) | 13.2 µM (inactive) | 16.1 µM (inactive) | 17.9 µM (inactive) |  | 25.7 µM (inactive) |
| Cc1ccc(O)c(-c2csc(NCN3CCN(CNc4nc(-c5cc(C)ccc5O)cs4)CC3)n2)c1 | > 100 µM (inactive) | > 100 µM (inactive) | > 100 µM (inactive) | > 100 µM (inactive) | > 100 µM (inactive) | > 100 µM (inactive) | > 100 | > 100 µM (inactive) | > 100 µM (inactive) | > 100 µM (inactive) | > 100 µM (inactive) | > 100 µM (inactive) | > 100 µM (inactive) | > 100 µM (inactive) | > 100 µM (inactive) | > 100 µM (inactive) | > 100 µM (inactive) | > 100 µM (inactive) | > 100 µM (inactive) | > 100 µM (inactive) |
| COc1ccc(C(C)NNC(=O)c2ccncc2)c(OC)c1 (stereo unspecified) | > 100 µM (inactive) | > 100 µM (inactive) | > 100 µM (inactive) | > 100 µM (inactive) | 93.1 µM (inactive) | > 100 µM (inactive) | > 100 | > 100 µM (inactive) | > 100 µM (inactive) | > 100 µM (inactive) | > 100 µM (inactive) | > 100 µM (inactive) | > 100 µM (inactive) | > 100 µM (inactive) | > 100 µM (inactive) | > 100 µM (inactive) | > 100 µM (inactive) | > 100 µM (inactive) | > 100 µM (inactive) | > 100 µM (inactive) |
| CC(=O)Oc1ccn2nc(C)c(Br)c2c1Br | 29 µM (inactive) | 29.4 µM (inactive) | 21.5 µM (inactive) | 44.4 µM (inactive) | 24.5 µM (inactive) | 40.9 µM (inactive) | 16.9 | > 10 µM (inactive) | 2.88 µM (inactive) | 20.7 µM (inactive) | 25.1 µM (inactive) | 17.9 µM (inactive) | 27.7 µM (inactive) | 4.6 µM (inactive) | 32.5 µM (inactive) | 27.5 µM (inactive) | 17.6 µM (inactive) |  | 19.4 µM (inactive) | 25.5 µM (inactive) |
| O=C1C(N2CCOCC2)=C(Cl)C(=O)c2ncccc21 | 0.212 µM (active) | 2.61 µM (inactive) | > 6.79 µM (inactive) | > 10 µM (inactive) | 1.39 µM (inactive) | 0.778 µM (active) | 2.03 | 1.55 µM (inactive) | > 10 µM (inactive) | > 6 µM (inactive) | 8.32 µM (inactive) | 1.73 µM (inactive) | 1.75 µM (inactive) | 4.23 µM (inactive) | > 8.53 µM (inactive) | 1.87 µM (inactive) | 1.81 µM (inactive) | > 10 µM (inactive) | 1.5 µM (inactive) | 2.9 µM (inactive) |
